In patent publication US7799831B2, “Lipophilic diesters of chelating agent for inhibition of enzyme activity” (D-Pharm Ltd., priority 2002, dated 2010):
One block for each compound: values may come before it.

Tests used:
MMP-9 [1] = target: T1, MMP-9 (Homo sapiens, UniProt P14780); assay: MMP-9 activity assay (BioTrak) in conditioned media of TNFα-treated A-172 glioma cells; format: cell-based; conditions: A-172 cells, 10 ng/ml TNFα, 20 or 50 μM compound
T1 construct: endogenous in cells; host or cells: A-172 human glioma cells (ATCC CRL-1620)
Experimental: (§1) A-172 human glioma cells (ATCC; CRL-1620) were grown and treated with 10 ng/ml TNFα in the presence of 0, 20 or 50 μM DP-b109 following the procedure as described above in Example 3. Cells treated with vehicle without the TNFα treatment, served as control groups.
(§2) CM from each treatment group was collected and subjected to zymogram gels (see procedure in Example 3), to MMP-9 immunoassay and to MMP-9 activity assay.
MMP-9 activity was assayed using the MMP-9 activity assay system (BioTrak™, Amersham, U.K., Cat. # RPN 2634), which quantifies the amount of the active MMP-9 form (see BioTrak kit instructions).

MMP-9 [2] = assay: Total MMP-9 protein immunoassay (Quantikine) in conditioned media of TNFα-treated A-172 glioma cells; format: cell-based, human; conditions: A-172 cells, 10 ng/ml TNFα, 20 or 50 μM compound
Experimental: as §1, §2
The total amount of MMP-9 protein was determined by immunoassay using the Quantikine™ (R&D Systems, U.S.A., Cat # DMP900) kit and following the manufacturer's instructions.

MMP-9 [3] = target: T2, MMP-9 (Rattus norvegicus, UniProt P50282); assay: MMP-9 gelatinase activity by gelatin zymogram of conditioned media from C6 glioma cells (basal, TNFα- or PMA-induced); format: cell-based; conditions: for Effect on MMP-9 activity: C6 glioma cells stimulated with TNFα
Experimental: C6 rat glioma cells (ATCC; CRL-2199) grown on 100 mm petri dishes were detached by trypsinization and cultured to a density of 10^5 cells/well on 24-well plates in DMEM+10% FCS. The TNFα-treated cells which were stimulated to induce gelatinases were incubated, on the next day after plating, for 18 hours in DMEM without serum in the presence of either 20 ng/ml or 40 ng/ml
TNFα (R&D, cat. #410-TRNC). Different concentrations of the tested compound, as indicated, in 0.48% fatty acid free BSA, 0.4% ethanol were added to the cells that were then incubated for a total of 18-24 hours at 37° C. Cells treated with vehicle only served as control group.
Conditioned media (CM) were then collected, centrifuged at 2000 rpm for 5 min., and supernatants were transferred to new tubes. MMP gelatinase activity was determined by using zymogram gels (Invitrogen, cat. #EC6175) which include gelatin as a substrate. Samples were loaded on gels in 62.5 mM Tris-HCl pH 6.8, 10% glycerol, 2% SDS and traces of bromophenol-blue. Gels were run in Tris/glycine-SDS running buffer, washed for 30 min. with renaturing buffer (Invitrogen) and for further 30 min. with developing buffer (Invitrogen). MMP activity was developed overnight at 37° C. with fresh developing buffer. The gels were then stained for one hour with Coomasie Blue (Brilliant Blue R, Sigma, cat. #B-8647) in 40% methanol and 7% acetic acid, and destained with 30% methanol/10% acetic acid. […] Band analysis was determined using the Kodak digital Science™ 1D Image Analysis Software. Treatments were performed in triplicates and were subjected to three separate zymogram gels.
C6 glioma cells were grown and treated as described above in Example 3, except that cells were stimulated with either 20 ng/ml TNFα (R&D, cat. #410-TRNC) or 0.1 μM Phorbol 12-myristate 13-acetate (PMA, Sigma, cat. #P-8139). […]
Assays were performed in triplicates and zymogram analysis was carried out as described above in Example 3. IC50 values for each of the tested DP-BAPTA compounds were calculated.
Target sequence in this assay (P50282 108-708): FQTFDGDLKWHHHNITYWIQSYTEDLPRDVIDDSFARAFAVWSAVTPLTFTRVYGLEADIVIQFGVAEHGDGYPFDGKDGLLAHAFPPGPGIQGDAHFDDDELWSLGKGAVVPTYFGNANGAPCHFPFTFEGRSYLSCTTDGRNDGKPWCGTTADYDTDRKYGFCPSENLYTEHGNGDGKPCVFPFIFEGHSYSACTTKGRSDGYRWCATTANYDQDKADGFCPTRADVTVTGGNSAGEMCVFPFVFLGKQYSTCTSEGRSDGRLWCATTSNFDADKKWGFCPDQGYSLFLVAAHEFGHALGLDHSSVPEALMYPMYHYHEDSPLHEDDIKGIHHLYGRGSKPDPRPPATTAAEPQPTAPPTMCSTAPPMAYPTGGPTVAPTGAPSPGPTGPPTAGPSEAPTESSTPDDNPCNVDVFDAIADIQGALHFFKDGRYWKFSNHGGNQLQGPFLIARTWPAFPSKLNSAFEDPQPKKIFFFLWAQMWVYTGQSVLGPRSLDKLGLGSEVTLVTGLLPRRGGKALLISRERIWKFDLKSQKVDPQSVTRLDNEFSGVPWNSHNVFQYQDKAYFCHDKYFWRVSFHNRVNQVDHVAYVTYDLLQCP

calpain = assay: Calpain-cleaved spectrin in brain hemispheres after transient MCA occlusion; format: in vivo, rat; conditions: SD rats, 2 h MCAO, 5 μg/kg i.p. at start of reperfusion
Experimental: Transient middle cerebral artery (MCA) occlusion was performed in male Sprague Dawley (SD) rats by applying 4-0 silicone-coated nylon monofilament through external carotid artery. The animals were anesthetized with 4% halothane and maintained at 1.5% halothane in a 1:2 mixture of nitrous oxide and oxygen without tracheotomy and allowed to breathe spontaneously. Via a ventral cutaneous the common, right external and internal carotid arteries (ECA) were exposed. A suture was introduced into a ligated right external carotid artery, in a retrograde fashion towards the carotid bifurcation. It was then directed distally up to the right internal carotid artery to a distance of 20 mm from the carotid bifurcation to […] occlude the origin of the MCA. It was secured with silk ligatures. Two hours after occlusion the monofilament was withdrawn to allow reperfusion and the cutaneous wound was sutured and cleaned. The whole procedure took about 25 min., with rectal temperature maintained throughout at 37° C. […]
Assay for Calpain activity: Each hemisphere was separately lysed by homogenization on ice in 5 ml RIPA buffer (50 mM Tris pH 7.5; 150 mM NaCl; 0.5% DOC; 1% Triton X-100; 0.1% SDS; 1 mM Nappi; 2 mM EDTA) plus protease inhibitors (Bohringer, Manheim, Germany). […] Quantitation of the bands was performed using the Kodak 1D software. […]

MMP-9 [4] = target: T2, MMP-9; assay: MMP-9 zymogram of conditioned media from primary cortical glial cells (basal and TNFα-induced); format: cell-based; design: endogenous in cells; host or cells: primary cortical glial cells from rat embryos; conditions: 25 μM compound
Experimental: Cortical glial cells from rat embryos (day 18 of pregnancy) were seeded on poly-D-lysine coated 24-well plates with MEM medium containing 5% FCS, 5% HS, 2 mM 1-glutamine and 0.6% glucose, at a density of 5×10^4 cells/well. After 4 days in culture, the medium was changed to MEM+10% FCS. When glial cells reached confluence (around 17 days after plating), they were exposed for 24 hours to 10 ng/ml or 20 ng/ml human TNFα in order to induce MMP-9. The induction was performed either in the absence or presence of 25 μM DP-b99 (dilution 1:200 with medium from a stock of 5 mM in sodium citrate buffer) in a serum-free medium containing 5 mg/ml BSA (essentially fatty acid free). Conditioned media (CM) were collected and 12 μl of each of the triplicates was subjected to separate zymogram gels, as described above in Example 3.
A quantitative analysis of the MMP-9 bands, representing the pro- and active forms of the enzyme, was performed on the triplicate zymograms. The results were normalized to percentage of control values (=100%) and are depicted in FIGS. 3B and 3C that represent, respectively, the biologically active- and pro-MMP-9 forms of the enzyme.

MMP-9 [5] = target: T2, MMP-9; assay: MMP-9 activity in brain hemisphere lysates after unilateral MCAO (zymogram); format: in vivo; design: each hemisphere of their brains was subjected separately to lysis and extracted for enzymatic activity; from tissue; host or cells: rat brain hemispheres (Sprague-Dawley, MCAO); conditions: SD rats, 2 h MCAO, 5 μg/kg i.p. single dose, sacrificed after 24 hrs
Experimental: Six Sprague-Dawley (SD) rats were subjected to unilateral (right hemisphere) Middle Cerebral Artery Occlusion (MCAO) for 2 hours. 5 μg/kg DP-b99 in 0.02% sodium citrate in saline was i.p. administered to three animals in a single dose, followed by 2 hrs. reperfusion. The other three animals were treated with vehicle instead of DP-b99. A rat that was only operated with no further treatment was used as a sham control.
The seven rats were sacrificed after 24 hrs. and each hemisphere of their brains was subjected separately to lysis and extracted for enzymatic activity. Brains were minced and solubilized in lysis buffer (25 mM Tris-HCl pH 7.5, 1% IGEPAL CA-630—a non-ionic detergent from Sigma, 100 mM NaCl, 0.5 U/ml aprotinin, 0.01% sodium azide) at a final concentration of 400 mg/ml. The preparations were incubated for 24 hrs. at 4° C. before lysates were centrifuged at 14,000 rpm for 15 min. and supernatants were collected.
Protein concentration was determined by the Bradford assay and 40 μg protein from each lysate were loaded on gelatin zymogram gels for determination of MMP-9 levels. Gels were developed for 48 hrs. Quantitative analysis of the gels was performed using the Kodak Digital System and Kodak 1D software as described in Example 3.
Target sequence in this assay (P50282 108-708): as above

MMP-2 = target: T3, MMP-2 (Rattus norvegicus, UniProt P33436); assay: MMP-2 activity in brain hemisphere lysates after unilateral MCAO (zymogram); format: in vivo; conditions: SD rats, 2 h MCAO, 5 μg/kg i.p. single dose, sacrificed after 24 hrs
T3 construct: each hemisphere of their brains was subjected separately to lysis and extracted for enzymatic activity; from tissue; host or cells: rat brain hemispheres (Sprague-Dawley, MCAO)
T3 sequence (P33436 110-662): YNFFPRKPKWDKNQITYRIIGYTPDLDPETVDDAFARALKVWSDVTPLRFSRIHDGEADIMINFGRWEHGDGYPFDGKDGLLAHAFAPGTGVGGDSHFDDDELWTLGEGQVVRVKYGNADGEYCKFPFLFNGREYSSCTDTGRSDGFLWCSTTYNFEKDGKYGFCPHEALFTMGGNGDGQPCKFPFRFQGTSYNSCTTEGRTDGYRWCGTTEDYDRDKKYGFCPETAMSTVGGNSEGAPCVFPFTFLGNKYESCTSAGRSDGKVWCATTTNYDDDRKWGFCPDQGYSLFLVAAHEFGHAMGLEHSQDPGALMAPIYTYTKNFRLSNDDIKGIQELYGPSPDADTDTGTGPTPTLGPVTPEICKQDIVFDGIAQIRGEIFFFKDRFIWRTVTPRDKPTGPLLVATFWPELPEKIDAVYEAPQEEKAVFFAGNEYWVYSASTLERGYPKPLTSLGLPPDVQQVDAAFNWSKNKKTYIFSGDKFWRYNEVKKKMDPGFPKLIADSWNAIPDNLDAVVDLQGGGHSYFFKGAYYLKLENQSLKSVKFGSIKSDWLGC

T1 sequence (P14780 107-707 limits assumed): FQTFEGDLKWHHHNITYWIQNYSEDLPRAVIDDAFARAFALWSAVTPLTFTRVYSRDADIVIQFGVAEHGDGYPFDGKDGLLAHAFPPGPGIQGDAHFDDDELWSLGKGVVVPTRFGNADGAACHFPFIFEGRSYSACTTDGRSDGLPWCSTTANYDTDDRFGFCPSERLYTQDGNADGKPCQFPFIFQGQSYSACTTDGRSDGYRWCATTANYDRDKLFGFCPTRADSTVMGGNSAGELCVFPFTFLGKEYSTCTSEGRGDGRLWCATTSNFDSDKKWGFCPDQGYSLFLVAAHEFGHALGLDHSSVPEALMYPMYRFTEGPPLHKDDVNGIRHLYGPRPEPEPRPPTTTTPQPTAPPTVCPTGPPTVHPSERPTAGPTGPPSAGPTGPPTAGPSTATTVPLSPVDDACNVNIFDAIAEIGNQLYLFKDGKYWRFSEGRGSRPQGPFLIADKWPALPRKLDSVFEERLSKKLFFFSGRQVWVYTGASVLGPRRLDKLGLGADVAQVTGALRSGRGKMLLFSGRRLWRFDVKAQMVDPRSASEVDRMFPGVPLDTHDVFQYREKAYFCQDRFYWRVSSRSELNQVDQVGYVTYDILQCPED

TNFα-induced increase in active MMP-9 (MMP-9 [1]): reduced to the baseline level
Compound: CCCCCCCCCCCCCCCCCCOCCOC(=O)CN(CC(=O)O)c1ccccc1OCCOc1ccccc1N(CC(=O)O)CC(=O)OCCOCCCCCCCCCCCCCCCCCC [DP-b109, 1,2-bis(2-aminophenoxy)ethane, N,N′-di(2-octodecyloxyethyl acetate), N,N′-diacetic acid]
Level of total MMP-9 protein in conditioned media (MMP-9 [2]): reduces, in a dose-dependent fashion

Compound: CC(=O)OCOC(=O)CN(CC(=O)OCOC(C)=O)c1ccccc1OCCOc1ccccc1N(CC(=O)OCOC(C)=O)CC(=O)OCOC(C)=O [BAPTA-AM, 1,2-bis(2-aminophenoxy)ethane-N,N,N′,N′-tetra-acetic acid acetoxymethyl ester]
Effect on MMP-9 activity (MMP-9 [3]): increased rather than decreased the MMP-9 activity
Effect on TNFα-induced MMP-9 activity (MMP-9 [3]; C6 glioma cells, 20 ng/ml TNFα, compounds at 1, 5, 10 and 20 μM, zymogram): Increased

Effect on MMP-9 activity (MMP-9 [3]): did not affect the MMP-9 activity
Compound: O=C(O)CN(CC(=O)O)c1ccccc1OCCOc1ccccc1N(CC(=O)O)CC(=O)O [BAPTA, 1,2-bis(2 aminophenoxy)ethane-N,N,N′,N′-tetraacetic acid]

Compound: CCCCCCCCOCCOC(=O)CN(CC(=O)O)c1ccccc1OCCOc1ccccc1N(CC(=O)O)CC(=O)OCCOCCCCCCCC [DP-b99, 1,2-bis(2-aminophenoxy)ethane, N,N′-di(2-octoxyethyl acetate), N,N′-diacetic acid]
Increase in cleaved spectrin over the sham-operated values (calpain): about 50%
Cleaved spectrin (R/L hemisphere) (calpain; sacrificed four hours later, n=2): 1.42 ± 0.08
Active MMP-9 form, TNFα treated cells (MMP-9 [4]; 10 or 20 ng/ml TNFα): reduced
Pro-MMP-9 form, TNFα treated cells (MMP-9 [4]; 10 or 20 ng/ml TNFα): reduced
Active MMP-9 band, un-stimulated cells (MMP-9 [4]; no TNFα): abolished
Pro-MMP-9 band intensity, un-stimulated cells (MMP-9 [4]; no TNFα): increased the band intensity
MMP-9 activity R/L ratio (injured/intact hemisphere) (MMP-9 [5]): 3.0
MMP-2 activity level (MMP-2): unaffected
